{
  "source": "patent US20210116454A1",
  "about": "“METHODS FOR TREATING A HEMATOLOGICAL CANCER AND THE USE OF COMPANION BIOMARKERS FOR 2-(2,6-DIOXOPIPERIDIN-3-YL)-4-((2-FLUORO-4-((3-MORPHOLINOAZETIDIN-1-YL)METHYL)BENZYL)AMINO)ISOINDOLINE-1,3-DIONE” (CELGENE CORPORATION, priority 2019, published 2021)",
  "key": {"[1]": {"target": "T1, Aiolos (Homo sapiens, UniProt Q96SW2+Q9UKT9)", "T1 construct": "expressed in transfected cells; host or cells: DF15 cells", "T1 sequence (Q9UKT9 whole entry, the tested form may be a part)": "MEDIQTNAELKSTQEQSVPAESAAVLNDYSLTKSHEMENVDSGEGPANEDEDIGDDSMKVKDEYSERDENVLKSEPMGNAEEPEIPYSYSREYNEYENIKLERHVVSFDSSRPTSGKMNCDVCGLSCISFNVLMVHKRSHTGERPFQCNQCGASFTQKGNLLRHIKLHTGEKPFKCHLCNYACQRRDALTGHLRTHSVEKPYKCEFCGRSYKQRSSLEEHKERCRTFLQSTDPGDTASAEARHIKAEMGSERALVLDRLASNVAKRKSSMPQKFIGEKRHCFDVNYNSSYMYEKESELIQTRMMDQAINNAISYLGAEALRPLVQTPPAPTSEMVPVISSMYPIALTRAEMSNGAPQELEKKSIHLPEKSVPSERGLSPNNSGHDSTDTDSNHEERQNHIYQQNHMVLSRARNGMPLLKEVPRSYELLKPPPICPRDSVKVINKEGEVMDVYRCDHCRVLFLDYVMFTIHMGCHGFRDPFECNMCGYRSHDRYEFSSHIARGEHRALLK", "T1 sequence (Q96SW2 whole entry, the tested form may be a part)": "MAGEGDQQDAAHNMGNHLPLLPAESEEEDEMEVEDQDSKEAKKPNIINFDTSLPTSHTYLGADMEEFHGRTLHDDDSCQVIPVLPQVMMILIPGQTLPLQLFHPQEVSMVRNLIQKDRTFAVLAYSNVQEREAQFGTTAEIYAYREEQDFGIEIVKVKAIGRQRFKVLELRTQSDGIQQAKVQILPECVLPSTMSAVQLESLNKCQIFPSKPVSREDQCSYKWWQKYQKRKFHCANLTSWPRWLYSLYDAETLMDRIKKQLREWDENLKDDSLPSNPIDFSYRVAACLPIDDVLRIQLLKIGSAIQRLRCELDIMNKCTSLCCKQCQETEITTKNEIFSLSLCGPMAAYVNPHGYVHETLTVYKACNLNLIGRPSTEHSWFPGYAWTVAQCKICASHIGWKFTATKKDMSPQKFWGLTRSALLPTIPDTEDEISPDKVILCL", "T1 sequence (Q16531 whole entry partner, the tested form may be a part)": "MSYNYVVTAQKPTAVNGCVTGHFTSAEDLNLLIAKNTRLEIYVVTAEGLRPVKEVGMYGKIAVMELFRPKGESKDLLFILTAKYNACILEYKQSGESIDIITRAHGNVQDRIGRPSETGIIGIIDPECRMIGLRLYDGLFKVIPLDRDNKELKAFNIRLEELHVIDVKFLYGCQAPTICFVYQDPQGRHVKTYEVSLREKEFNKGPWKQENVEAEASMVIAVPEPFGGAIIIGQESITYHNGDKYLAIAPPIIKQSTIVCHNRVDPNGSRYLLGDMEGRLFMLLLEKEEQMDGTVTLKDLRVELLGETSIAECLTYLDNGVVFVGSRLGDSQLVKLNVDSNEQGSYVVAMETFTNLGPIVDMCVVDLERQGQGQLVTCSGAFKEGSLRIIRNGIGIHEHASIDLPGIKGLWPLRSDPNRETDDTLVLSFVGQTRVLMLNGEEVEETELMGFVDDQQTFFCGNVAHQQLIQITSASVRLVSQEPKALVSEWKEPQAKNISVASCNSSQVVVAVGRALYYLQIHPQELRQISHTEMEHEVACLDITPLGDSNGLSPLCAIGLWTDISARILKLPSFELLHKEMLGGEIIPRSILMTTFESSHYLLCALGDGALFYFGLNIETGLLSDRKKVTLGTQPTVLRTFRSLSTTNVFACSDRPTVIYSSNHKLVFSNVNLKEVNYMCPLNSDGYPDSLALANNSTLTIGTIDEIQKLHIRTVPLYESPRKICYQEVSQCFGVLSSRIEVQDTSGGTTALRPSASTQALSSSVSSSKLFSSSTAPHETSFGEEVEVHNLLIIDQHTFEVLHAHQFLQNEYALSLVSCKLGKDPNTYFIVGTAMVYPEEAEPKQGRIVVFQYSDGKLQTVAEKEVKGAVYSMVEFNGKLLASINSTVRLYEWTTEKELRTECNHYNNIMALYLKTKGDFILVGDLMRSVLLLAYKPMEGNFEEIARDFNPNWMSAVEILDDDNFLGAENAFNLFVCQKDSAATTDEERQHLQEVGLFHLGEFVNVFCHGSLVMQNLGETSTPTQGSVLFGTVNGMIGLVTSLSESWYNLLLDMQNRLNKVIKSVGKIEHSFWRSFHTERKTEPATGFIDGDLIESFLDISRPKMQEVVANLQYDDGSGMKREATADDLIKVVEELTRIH", "assay": "Enzyme fragment complementation (EFC) degradation assay, DF15 cells expressing ePL-tagged substrate", "assay_type": "cell-based", "settings": "for Emax: DF15, DF15 ePL-Aiolos, remaining substrate; for DC50: DF15 ePL-Aiolos, read-out: Aiolos degradation EC50"}, "[2]": {"system": "SU-DHL2 CRBN^-/- cells", "assay": "Cell proliferation in CRBN^-/- (knock out) cells, 5 days", "assay_type": "cell-based", "settings": "Homo sapiens, SU-DHL-2, 120 h", "description": "(§1) The activated B-cell (ABC) and MYC/BCL2 double expressor cell lines SU-DHL-2 and RIVA, the germinal center B-cell (GCB) and MYC/BCL2 double hit cell lines (and expressing BCL6) Karpas-422, SU-DHL-10, WSU-DLCL2, and the primary mediastinal B-cell lymphoma (PMBL) cell line Farage were infected with a CAS9 expressing lentivirus construct to generate the control CAS9 expressing cells. The Cas9 cells had wild type cereblon expression (CRBN^WT).\n(§2) To generate the cereblon knock out cells (CRBN^−/−), the individual control CAS9 cells were infected with a construct expressing a subgenomic single guide RNA (sgRNA). Western blot analysis confirmed the absence of cereblon protein in the CRBN^−/− cells, relative to the levels of the housekeeping protein β-tubulin. The CRBN^WT and CRBN^−/− cells were treated with increasing concentrations of Compound 1 for five days."}, "[3]": {"system": "Karpas-422 CRBN^-/- cells", "assay": "Cell proliferation in CRBN^-/- (knock out) cells, 5 days", "assay_type": "cell-based", "settings": "Homo sapiens, 120 h", "description": "as §1, §2"}, "[4]": {"system": "RIVA CRBN^-/- cells", "assay": "Cell proliferation in CRBN^-/- (knock out) cells, 5 days", "assay_type": "cell-based", "settings": "120 h", "description": "as §1, §2"}, "[5]": {"system": "Farage CRBN^-/- cells", "assay": "Cell proliferation in CRBN^-/- (knock out) cells, 5 days", "assay_type": "cell-based", "settings": "120 h", "description": "as §1, §2"}, "[6]": {"system": "SU-DHL10 CRBN^-/- cells", "assay": "Cell proliferation in CRBN^-/- (knock out) cells, 5 days", "assay_type": "cell-based", "settings": "Homo sapiens, 120 h", "description": "as §1, §2"}, "[7]": {"system": "WSU-DLCL2 CRBN^-/- cells", "assay": "Cell proliferation in CRBN^-/- (knock out) cells, 5 days", "assay_type": "cell-based", "settings": "Homo sapiens, WSUDLCL2, 120 h", "description": "as §1, §2"}, "[8]": {"target": "T2, ZFP91 (Homo sapiens, UniProt Q96JP5+Q96SW2)", "T2 construct": "expressed in transfected cells; host or cells: DF15 cells", "T2 sequence (Q96JP5 whole entry)": "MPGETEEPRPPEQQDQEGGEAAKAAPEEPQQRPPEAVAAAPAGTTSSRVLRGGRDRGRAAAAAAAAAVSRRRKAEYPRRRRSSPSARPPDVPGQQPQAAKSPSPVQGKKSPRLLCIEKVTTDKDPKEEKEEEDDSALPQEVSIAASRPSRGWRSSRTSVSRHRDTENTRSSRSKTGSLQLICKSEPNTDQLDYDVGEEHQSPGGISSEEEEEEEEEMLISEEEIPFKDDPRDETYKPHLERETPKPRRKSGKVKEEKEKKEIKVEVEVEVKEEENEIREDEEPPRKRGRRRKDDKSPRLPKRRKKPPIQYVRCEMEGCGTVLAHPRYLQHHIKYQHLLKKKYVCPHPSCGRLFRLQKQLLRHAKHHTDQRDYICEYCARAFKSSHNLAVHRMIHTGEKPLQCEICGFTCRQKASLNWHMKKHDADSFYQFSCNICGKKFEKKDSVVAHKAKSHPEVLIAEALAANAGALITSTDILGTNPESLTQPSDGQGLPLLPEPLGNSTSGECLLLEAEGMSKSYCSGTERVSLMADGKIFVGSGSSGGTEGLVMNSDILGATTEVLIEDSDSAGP", "T2 sequence (Q96SW2 whole entry)": "as the sequence (Q96SW2 whole entry, the tested form may be a part) above", "T2 sequence (Q16531 whole entry partner)": "as the sequence (Q16531 whole entry partner, the tested form may be a part) above", "assay": "ePL-tagged substrate degradation kinetics in DF15 cells (enantiomer comparison)", "assay_type": "cell-based", "parameters": "ZFP91 Y-constant: scale not given here", "settings": "for DC50: read-out: ZFP91 EC50", "protocol": "In a second assay, DF15 cell lines expressing ePL-tagged target protein substrates were used as a model system to monitor protein degradation at 0.75, 1, 1.5, 3, 4, and 24 hours over a concentration range from 1 pM to 10 μM. The proteins evaluated were Ikaros (FIG. 17), Aiolos, and ZFP91. Compound 1 and Compound 2 were both able to degrade the substrate proteins at all time points (Table 9). In a further assay, additional time points were included to monitor the effect of treatment with Compound 1 and Compound 2.\nThe depth of substrate protein degradation described by the Y-constant was also measured in this assay against a negative control luciferase inhibitor (CC1071297, Y-constant=0)."}, "[9]": {"target": "Ikaros (Homo sapiens, UniProt Q13422+Q96SW2)", "sequence (Q13422 whole entry)": "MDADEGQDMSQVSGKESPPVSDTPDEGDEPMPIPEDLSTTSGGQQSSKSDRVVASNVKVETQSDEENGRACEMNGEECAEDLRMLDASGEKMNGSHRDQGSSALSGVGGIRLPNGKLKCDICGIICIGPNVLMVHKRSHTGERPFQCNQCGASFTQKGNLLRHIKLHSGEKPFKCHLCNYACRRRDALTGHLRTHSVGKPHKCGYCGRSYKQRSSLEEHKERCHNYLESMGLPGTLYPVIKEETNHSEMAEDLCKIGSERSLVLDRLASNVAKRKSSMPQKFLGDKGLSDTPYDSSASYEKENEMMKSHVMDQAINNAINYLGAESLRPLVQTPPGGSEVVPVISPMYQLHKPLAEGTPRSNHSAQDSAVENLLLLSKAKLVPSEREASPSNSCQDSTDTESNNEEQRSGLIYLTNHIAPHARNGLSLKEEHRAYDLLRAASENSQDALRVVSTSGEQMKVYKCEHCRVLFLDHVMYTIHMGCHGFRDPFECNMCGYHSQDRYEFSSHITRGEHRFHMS", "sequence (Q96SW2 whole entry)": "as the sequence (Q96SW2 whole entry, the tested form may be a part) above", "sequence (Q16531 whole entry partner)": "as the sequence (Q16531 whole entry partner, the tested form may be a part) above", "assay": "Ikaros degradation in anti-CD3 stimulated PBMCs by flow cytometry", "assay_type": "cell-based", "protocol": "Purified PBMCs from four healthy donors were plated on anti-CD3-coated plates to stimulate T cells and subsequently treated with either DMSO (control) or Compound 1 at various concentrations. The ability of Compound 1 to promote the degradation of Ikaros was assessed over time by flow cytometry (FIG. 12)."}, "[10]": {"system": "MyoF system", "assay": "BioMAP MyoF system (lung fibroblasts)", "assay_type": "cell-based, human", "settings": "0.01, 0.1, 1, and 10 μM", "protocol": "The activity of Compound 1 was profiled in a panel of human primary cell-based assays, modeling complex tissue and disease biology of organs (vasculature, immune system, skin, lung) and general tissue biology using the BioMAP System (DiscoveRx, Fremont, Calif.).\nThe BioMAP System consists of twelve primary human monoculture or co-culture systems in stimulated and non-stimulated control conditions (FIG. 4, panel A). When tested at 0.01, 0.1, 1, and 10 μM, Compound 1 mediated changes in key biomarker activities. Specifically, the profiles for Compound 1 reflected selective anti-inflammatory and immunomodulatory impact on monocyte (LPS) and T cell dependent B cell activation responses (BT). Treatment with Compound 1 led to a decrease in interleukin 8 (IL-8), interleukin 1a (IL-1a), secreted prostaglandin E2 (sPGE2), and secreted tumor necrosis factor alpha (sTNFα) in the LPS system, which consisted of peripheral blood mononuclear cells (PBMCs) and endothelial cells. Furthermore, secreted IgG (sIgG), secreted interleukin 17A (sIL-17A), secreted interleukin 17F (sIL-17F), and sTNFα decreased, whereas secreted interleukin 2 (sIL-2) and secreted interleukin 6 (sIL-6) increased, in the BT system, which was comprised of B cells and PBMCs."}, "[11]": {"system": "PBMCs from four healthy donors", "assay": "Cytokine secretion by anti-CD3 stimulated PBMCs (MSD)", "assay_type": "cell-based", "protocol": "Purified PBMCs from four healthy donors were plated on anti-CD3 antibody-coated plates to stimulate T cells and were subsequently treated with either DMSO (control) or Compound 1 at various concentrations for 3, 4, and 7 days. Secretion of cytokines was measured in supernatant fluid from PBMC cultures over time by using mesoscale (MSD) assays. Compound 1 induced IL-2 secretion at all concentrations tested."}, "[12]": {"target": "T2, ZFP91", "assay": "Enzyme fragment complementation (EFC) degradation assay, DF15 cells expressing ePL-tagged substrate", "assay_type": "cell-based", "settings": "for Emax: remaining substrate; for DC50: read-out: ZFP91 degradation EC50"}},
  "note": "Read-outs that look alike come from different tables or passages of the source.",
  "data": [
    {"smiles": "O=C1CC[C@H](N2C(=O)c3cccc(NCc4ccc(CN5CC(N6CCOCC6)C5)cc4F)c3C2=O)C(=O)N1", "note": "[Compound 1, (S)-2-(2,6-dioxopiperidin-3-yl)-4-((2-fluoro-4-((3-morpholinoazetidin-1-yl)methyl)benzyl)amino)isoindoline-1,3-dione]", "values": [
      {"measurement": "Emax", "setting": "[1]; 1 hour", "value": 60, "unit": "%"},
      {"measurement": "Emax", "setting": "[1]; 2 hours", "value": 16.5, "unit": "%"},
      {"measurement": "Emax", "setting": "[1]; 6 hours", "value": 6, "unit": "%"},
      {"measurement": "Emax", "setting": "[1]; 24 hours", "value": 7, "unit": "%"},
      {"measurement": "DC50", "setting": "[1]; 1 hour", "value": 0.6, "unit": "nM"},
      {"measurement": "DC50", "setting": "[1]; 2 hours", "value": 0.5, "unit": "nM"},
      {"measurement": "DC50", "setting": "[1]; 6 hours", "value": 0.2, "unit": "nM"},
      {"measurement": "DC50", "setting": "[1]; 24 hours", "value": 0.2, "unit": "nM"},
      {"measurement": "IC50", "setting": "[2]", "value": "> 10000", "unit": "nM"},
      {"measurement": "IC50", "setting": "[3]", "value": "> 10000", "unit": "nM"},
      {"measurement": "IC50", "setting": "[4]", "value": "> 10000", "unit": "nM"},
      {"measurement": "IC50", "setting": "[5]", "value": "> 10000", "unit": "nM"},
      {"measurement": "IC50", "setting": "[6]", "value": "> 10000", "unit": "nM"},
      {"measurement": "IC50", "setting": "[7]", "value": "> 10000", "unit": "nM"},
      {"measurement": "ZFP91 Y-constant", "setting": "[8]; 0.75 hours", "value": 37},
      {"measurement": "DC50", "setting": "[8]; 0.75 hours", "value": 0.54, "unit": "nM"},
      {"measurement": "ZFP91 Y-constant", "setting": "[8]; 1 hour", "value": 28},
      {"measurement": "DC50", "setting": "[8]; 1 hour", "value": 0.36, "unit": "nM"},
      {"measurement": "ZFP91 Y-constant", "setting": "[8]; 1.5 hours", "value": 11},
      {"measurement": "DC50", "setting": "[8]; 1.5 hours", "value": 0.36, "unit": "nM"},
      {"measurement": "ZFP91 Y-constant", "setting": "[8]; 3 hours", "value": 4.9},
      {"measurement": "DC50", "setting": "[8]; 3 hours", "value": 0.19, "unit": "nM"},
      {"measurement": "ZFP91 Y-constant", "setting": "[8]; 4 hours", "value": 4.3},
      {"measurement": "DC50", "setting": "[8]; 4 hours", "value": 0.17, "unit": "nM"},
      {"measurement": "ZFP91 Y-constant", "setting": "[8]; 24 hours", "value": 2.0},
      {"measurement": "DC50", "setting": "[8]; 24 hours", "value": 0.15, "unit": "nM"},
      {"measurement": "duration of Ikaros degradation after a single treatment", "setting": "[9]", "value": "maintained up to 7 days"},
      {"measurement": "Ikaros in PBMCs (percentage of Ikaros positive cells)", "setting": "[9]; four healthy donors", "value": "concentration-dependent degradation"},
      {"measurement": "collagen-I and -III expression", "setting": "[10]", "value": "compelling inhibition"},
      {"measurement": "plasminogen activator inhibitor-1 (PAI-1) expression", "setting": "[10]", "value": "slight inhibition"},
      {"measurement": "Interleukin-2 secretion by PBMCs", "setting": "[11]; 0.1 to 100 nM, 3, 4, and 7 days", "value": "increased"},
      {"measurement": "other monitored cytokines (TNFα, IFNγ, IL-4, IL-13, IL-10, and IL-6)", "setting": "[11]; 3, 4, and 7 days", "value": "Transient or no effect"},
      {"measurement": "Emax", "setting": "[12]; DF15, DF15 ePL-ZFP91, 1 hour", "value": 64, "unit": "%"},
      {"measurement": "Emax", "setting": "[12]; DF15, DF15 ePL-ZFP91, 2 hours", "value": 26.5, "unit": "%"},
      {"measurement": "Emax", "setting": "[12]; DF15, DF15 ePL-ZFP91, 6 hours", "value": 4, "unit": "%"},
      {"measurement": "Emax", "setting": "[12]; DF15, DF15 ePL-ZFP91, 24 hours", "value": 2.5, "unit": "%"},
      {"measurement": "DC50", "setting": "[12]; DF15 ePL-ZFP91, 1 hour", "value": 1, "unit": "nM"},
      {"measurement": "DC50", "setting": "[12]; DF15 ePL-ZFP91, 2 hours", "value": 0.5, "unit": "nM"},
      {"measurement": "DC50", "setting": "[12]; DF15 ePL-ZFP91, 6 hours", "value": 0.2, "unit": "nM"},
      {"measurement": "DC50", "setting": "[12]; DF15 ePL-ZFP91, 24 hours", "value": 0.1, "unit": "nM"}
    ]}
  ]
}
